Measured values published in patent US12178210B2, “Insect attractant and killing system” (priority 2020, dated 2024).
Like-named read-outs stand apart in the source and are kept apart here.

Details: field, Córdoba, initial amount 15 g, UV8, 1.6 mm orifice
Procedure: The devices consisted of a pesticide coated insecticide transfer envelope (˜10 mg of deltamethrin) equipped with a hook containing an attractant lure on the inside of the envelope (see FIG. 3). Attractant lures inside Magnet™ ORO were labelled and individually weighed at different periods of time. Qualitative identity of the remaining material was assessed by means of FTIR and compared with standards. Each lure was constructed using polypropylene/calcium carbonate film (UV8) as the membrane and Scotchpak™ (3M) polyester laminate film as the impermeable barrier material and a 1.6 mm ( 1/16 in) diameter spherical punch in the impermeable layer exposing the membrane and an ˜8 mm ( 5/16 in) diameter heat seal around the circumference of the punch (referred to as a ring seal). Each prototype contained 15 g of ammonium carbonate as the volatile insect attractant.
The trials were performed in Córdoba, Spain June-November 2019 where the average temperatures (high/low) are 32/17° C. (90/62° F.) in June, 37/19° C. (98/67° F.) in July, 35/19° C. (95/66° F.) in August, 32/18° C. (90/64° F.) in September, 24/13° C. (76/55° F.) in October, and 18/8° C. (65/47° F.) in November.

For N.N.O=C(O)O [Ammonium Carbonate, ammonium carbonate], the “Average Mass Loss” value (day 0 (Jul. 22, 2019)) was 0.0890 g/day, the “Average Mass Loss” value (day 9 (Jul. 31, 2019)) was 0.1082 g/day and the “Average Mass Loss” value (day 21 (Aug. 12, 2019)) was 0.0948 g/day. The “Average Mass Loss” value (day 28 (Aug. 19, 2019)) was 0.0976 g/day, the “Average Mass Loss” value (day 45 (Sep. 5, 2019)) was 0.0498 g/day and the “Average Mass Loss” value (day 57 (Sep. 17, 2019)) was 0.0111 g/day. The “Average Mass Loss” value (day 72 (Oct. 2, 2019)) was 0.0191 g/day, the “Average Mass Loss” value (day 80 (Oct. 10, 2019)) was 0.0299 g/day and the “Average Mass Loss” value (day 91 (Oct. 21, 2019)) was 0.0001 g/day. The “Average Mass Loss” value (day 105 (Nov. 4, 2019)) was 0.0046 g/day.
